SMILES strings stand for the structures.

For series [1], the target named is T1, human Cav1.2 channel (Homo sapiens, UniProt Q13936).
T1 construct: expressed in transfected cells; host or cells: HEK293
Briefly: In vitro assay L channel (FLIPR, KCl-induced calcium fluorescence). The settings on record: HEK293 cells expressing human Cav1.2 with β-2a and α2δ-1; 20 mM KCl; read-out: L channel antagonistic activity IC50. The format is cell-based. As to the method:
The L channel antagonistic activity (IC50 values) of Reference Examples 1A, 2A, and 3A is determined in accordance with the following experimental method.
Human embryonic kidney (HEK293) cells expressing the human Cav1.2 channel in addition to the auxiliary subunits β-2a and α2δ-1, are grown in culture medium (DMEM containing 10% heat-inactivated fetal calf serum (FCS), 100 U/ml penicillin, 100 μg/ml streptomycin, 100 μg/ml G418, 40 μg/ml zeocin and 100 μg/ml hygromycin). The cells are seeded at 20.000 cells/well into 384-well black clear bottom sterile plates (poly-L-lysine-coated, Becton Dickinson). The seeded plates are incubated overnight at 37° C. in 5% CO2. The KCl solution is prepared as 80 mM stock solution in assay buffer (HBSS containing 0.1% BSA, 20 mM HEPES, 0.375 g/l NaHCO3, adjusted to pH 7.4 with NaOH) for use in the assay at a final concentration of 20 mM. Antagonists are prepared as 10 mM stock solutions in DMSO, then diluted in 384 w plates first in DMSO, then in assay buffer to obtain 3× stocks. On the day of the assay, 25 μl of staining buffer (HBSS containing 20 mM HEPES, 0.375 g/l NaHCO3, and 3 μM of the fluorescent calcium indicator fluo-4 AM (1 mM stock solution in DMSO, containing 10% pluronic) is added to each well of the seeded plate. The 384-well cell-plates are incubated for 60 min at 37° C. in 5% CO2 followed by washing with 2×50 μl per well using assay buffer leaving 50 μl/well of this buffer for equilibration at room temperature (30-60 min). Within the Fluorescent Imaging Plate Reader (FLIPR, Molecular Devices), antagonists are added to the plate in a volume of 25 μl/well, incubated for 3 min and finally 25 μl/well of KCl solution is added for cellular depolarization. Fluorescence is measured for each well at 2 second intervals for 8 minutes, and the area under the curve of each fluorescence peak is compared to the area of the fluorescence peak induced by 20 mM KCl with vehicle in place of antagonist. […]

Series [2] in a line: Hygroscopicity by scanned gravimetric vapour sorption. The series is classed as physicochemical. The settings on record: upwards scan; for Hygroscopicity classification: European Pharmacopea Technical Guide (1999), 40% to 80% relative humidity; for Hygroscopicity mass change: between 40% and 80% relative humidity. The source says: The mass change between 40% relative humidity and 80% relative humidity in the upwards scan was considered.

Series [3] relates to isolated mouse hearts. Briefly: Effect on isolated hearts according to the Langendorff method. The settings on record: read-out: EC50 Langendorff experiment. As to the method: Effect on Isolated Hearts According to the Langendorff Method (Lgdff)
The Reference Examples 1A, 2A, and 3A were tested for their potential to reduce blood pressure and their effect on the contractility of the heart muscle. EC50 values on isolated mouse hearts were determined according to Literature (Doring H J., The isolated perfused heart according to Langendorff technique—function—application, Physiol. Bohemoslov. 1990, 39(6), 481-504; Kligfield P, Homer H, Brachfeld N., A model of graded ischemia in the isolated perfused rat heart, J. Appl. Physiol. 1976 June, 40(6), 1004-8).

T1 sequence (Q13936 whole entry): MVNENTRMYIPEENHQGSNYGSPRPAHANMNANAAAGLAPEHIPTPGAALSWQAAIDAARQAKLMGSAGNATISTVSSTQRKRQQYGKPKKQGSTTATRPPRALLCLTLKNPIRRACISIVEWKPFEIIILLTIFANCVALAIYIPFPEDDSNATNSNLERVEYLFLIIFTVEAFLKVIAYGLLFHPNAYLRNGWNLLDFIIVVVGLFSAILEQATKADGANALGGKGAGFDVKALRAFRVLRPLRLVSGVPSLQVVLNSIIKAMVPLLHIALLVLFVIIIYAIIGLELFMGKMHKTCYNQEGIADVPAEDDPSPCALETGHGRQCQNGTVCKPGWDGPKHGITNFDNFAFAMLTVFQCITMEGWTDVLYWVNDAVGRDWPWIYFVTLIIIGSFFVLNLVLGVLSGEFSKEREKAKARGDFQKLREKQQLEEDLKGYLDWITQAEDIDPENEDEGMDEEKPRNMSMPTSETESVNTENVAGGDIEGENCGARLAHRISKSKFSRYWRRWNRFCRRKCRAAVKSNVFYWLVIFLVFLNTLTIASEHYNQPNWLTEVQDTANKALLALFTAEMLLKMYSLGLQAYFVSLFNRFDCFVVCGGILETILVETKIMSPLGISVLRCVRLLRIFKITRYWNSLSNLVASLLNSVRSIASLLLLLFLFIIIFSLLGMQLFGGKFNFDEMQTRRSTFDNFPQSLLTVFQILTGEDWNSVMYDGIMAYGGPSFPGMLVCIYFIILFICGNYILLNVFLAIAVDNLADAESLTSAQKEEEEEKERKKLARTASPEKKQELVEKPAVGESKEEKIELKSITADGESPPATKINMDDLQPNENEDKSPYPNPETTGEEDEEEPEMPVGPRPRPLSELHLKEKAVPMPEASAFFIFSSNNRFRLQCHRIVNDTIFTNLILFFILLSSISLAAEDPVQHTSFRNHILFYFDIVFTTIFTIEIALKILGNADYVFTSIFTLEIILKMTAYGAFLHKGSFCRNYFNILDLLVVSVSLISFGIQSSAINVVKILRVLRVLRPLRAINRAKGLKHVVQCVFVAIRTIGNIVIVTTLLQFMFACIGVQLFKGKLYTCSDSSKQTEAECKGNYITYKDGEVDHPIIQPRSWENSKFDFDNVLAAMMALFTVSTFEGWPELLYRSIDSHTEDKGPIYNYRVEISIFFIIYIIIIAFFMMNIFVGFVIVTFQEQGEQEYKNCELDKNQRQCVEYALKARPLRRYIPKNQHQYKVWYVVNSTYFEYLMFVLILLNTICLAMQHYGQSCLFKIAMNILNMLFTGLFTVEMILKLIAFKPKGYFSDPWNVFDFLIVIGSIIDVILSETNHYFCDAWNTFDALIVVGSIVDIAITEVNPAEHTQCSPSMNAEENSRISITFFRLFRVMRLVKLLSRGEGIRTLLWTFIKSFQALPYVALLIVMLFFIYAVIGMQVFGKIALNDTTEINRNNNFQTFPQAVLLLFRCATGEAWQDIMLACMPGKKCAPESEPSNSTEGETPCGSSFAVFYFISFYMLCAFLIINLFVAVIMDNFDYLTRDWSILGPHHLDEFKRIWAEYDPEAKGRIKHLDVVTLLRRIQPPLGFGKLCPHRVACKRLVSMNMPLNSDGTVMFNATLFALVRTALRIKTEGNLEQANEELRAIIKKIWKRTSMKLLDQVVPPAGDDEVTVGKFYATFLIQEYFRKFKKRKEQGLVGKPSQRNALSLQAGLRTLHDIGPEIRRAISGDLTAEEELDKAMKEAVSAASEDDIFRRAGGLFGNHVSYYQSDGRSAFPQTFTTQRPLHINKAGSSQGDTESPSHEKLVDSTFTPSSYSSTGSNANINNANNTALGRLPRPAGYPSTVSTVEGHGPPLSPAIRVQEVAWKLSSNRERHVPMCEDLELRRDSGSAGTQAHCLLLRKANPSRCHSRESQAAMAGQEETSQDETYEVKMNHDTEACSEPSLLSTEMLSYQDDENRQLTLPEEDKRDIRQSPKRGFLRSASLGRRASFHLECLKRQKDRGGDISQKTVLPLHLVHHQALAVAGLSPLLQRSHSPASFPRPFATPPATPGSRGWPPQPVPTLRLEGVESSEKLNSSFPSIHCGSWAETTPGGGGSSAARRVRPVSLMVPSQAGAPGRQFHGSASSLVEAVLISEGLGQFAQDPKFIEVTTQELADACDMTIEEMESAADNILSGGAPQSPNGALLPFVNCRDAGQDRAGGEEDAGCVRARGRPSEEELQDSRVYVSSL
T1 sequence (Q08289 whole entry partner): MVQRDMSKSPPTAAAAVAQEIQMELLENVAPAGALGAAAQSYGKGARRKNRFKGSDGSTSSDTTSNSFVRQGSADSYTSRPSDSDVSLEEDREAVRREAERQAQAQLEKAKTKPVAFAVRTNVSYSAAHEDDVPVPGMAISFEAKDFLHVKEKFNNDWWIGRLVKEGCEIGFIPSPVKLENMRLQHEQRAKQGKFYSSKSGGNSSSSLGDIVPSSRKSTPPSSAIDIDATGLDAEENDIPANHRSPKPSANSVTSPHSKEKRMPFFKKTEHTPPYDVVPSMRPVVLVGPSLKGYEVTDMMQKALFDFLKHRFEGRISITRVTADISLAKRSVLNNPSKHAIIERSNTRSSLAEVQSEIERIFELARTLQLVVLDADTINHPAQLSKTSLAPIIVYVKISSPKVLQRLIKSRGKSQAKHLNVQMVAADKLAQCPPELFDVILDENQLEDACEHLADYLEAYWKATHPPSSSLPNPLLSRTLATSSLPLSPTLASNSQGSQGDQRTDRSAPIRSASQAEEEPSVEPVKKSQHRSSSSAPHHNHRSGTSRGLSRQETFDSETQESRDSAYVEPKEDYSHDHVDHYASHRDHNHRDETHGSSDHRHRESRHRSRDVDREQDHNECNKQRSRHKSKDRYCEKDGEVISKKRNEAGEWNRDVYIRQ
T1 sequence (P54289 25-946 partner limits assumed): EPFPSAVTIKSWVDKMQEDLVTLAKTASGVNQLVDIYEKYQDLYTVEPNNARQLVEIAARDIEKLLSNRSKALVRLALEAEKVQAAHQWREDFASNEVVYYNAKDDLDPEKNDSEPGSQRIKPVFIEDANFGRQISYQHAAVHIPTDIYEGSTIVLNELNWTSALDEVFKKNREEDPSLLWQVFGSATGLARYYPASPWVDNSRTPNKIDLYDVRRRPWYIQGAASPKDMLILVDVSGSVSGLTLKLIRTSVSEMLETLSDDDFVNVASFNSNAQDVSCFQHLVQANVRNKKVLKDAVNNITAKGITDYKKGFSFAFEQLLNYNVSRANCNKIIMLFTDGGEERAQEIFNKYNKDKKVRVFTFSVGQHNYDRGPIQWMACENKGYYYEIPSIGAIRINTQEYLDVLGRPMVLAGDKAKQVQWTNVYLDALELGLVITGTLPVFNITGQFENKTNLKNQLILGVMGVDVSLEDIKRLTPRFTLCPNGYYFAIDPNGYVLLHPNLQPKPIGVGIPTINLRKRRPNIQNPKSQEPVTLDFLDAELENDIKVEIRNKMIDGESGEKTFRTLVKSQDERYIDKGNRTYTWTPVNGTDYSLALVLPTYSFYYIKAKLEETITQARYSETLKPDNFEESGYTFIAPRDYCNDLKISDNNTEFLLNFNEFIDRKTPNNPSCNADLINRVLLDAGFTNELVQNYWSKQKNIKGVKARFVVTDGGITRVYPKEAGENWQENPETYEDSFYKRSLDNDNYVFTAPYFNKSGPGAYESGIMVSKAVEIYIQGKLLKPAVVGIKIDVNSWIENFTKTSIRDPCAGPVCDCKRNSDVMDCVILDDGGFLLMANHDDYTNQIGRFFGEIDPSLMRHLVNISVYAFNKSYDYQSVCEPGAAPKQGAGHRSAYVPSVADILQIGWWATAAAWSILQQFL
T1 sequence (P54289 947-1103 partner limits assumed): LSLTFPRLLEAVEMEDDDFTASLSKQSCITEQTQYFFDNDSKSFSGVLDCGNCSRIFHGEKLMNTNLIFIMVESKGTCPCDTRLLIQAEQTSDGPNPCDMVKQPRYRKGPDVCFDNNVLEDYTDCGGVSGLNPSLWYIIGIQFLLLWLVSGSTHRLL

With `COc1ccc(OC)c2[nH]c(CCCN(C)CC[C@@]3(OC(=O)C(C)C)C[C@@H]4CC[C@H]3C=C4c3ccccc3)nc12` [Reference Example 2A, Isobutyric acid (1S,2S,4S)-2-(2-{[3-(4,7-dimethoxy-1H-benzoimidazol-2-yl)-propyl]-methyl-amino}-ethyl)-5-phenyl-bicyclo[2.2.2]oct-5-en-2-yl ester], in series [1], the IC50 lay within 156 to 439 nM.

`COc1ccc(OC)c2[nH]c(CCCN(C)CCC3(OC(=O)C(C)C)CC4CCC3C=C4c3ccccc3)nc12.COc1ccc(OC)c2[nH]c(CCCN(C)CCC3(OC(=O)C(C)C)CC4CCC3C=C4c3ccccc3)nc12.O=C(O)/C=C/C(=O)O.O=C(O)/C=C/C(=O)O.O=C(O)/C=C/C(=O)O` (stereo not drawn) [sesqui-fumaric acid salt of COMPOUND]: in series [2], the Hygroscopicity classification result is “Non hygroscopic” and the Hygroscopicity mass change worked out at 0.1%.

Regarding `COc1ccc(OC)c2[nH]c(CCCN(C)CC[C@]3(OC(=O)C(C)C)C[C@H]4CC[C@@H]3C=C4c3ccccc3)nc12` [Reference Example 3A, Isobutyric acid (1R,2R,4R)-2-(2-{[3-(4,7-dimethoxy-1H-benzoimidazol-2-yl)-propyl]-methyl-amino}-ethyl)-5-phenyl-bicyclo[2.2.2]oct-5-en-2-yl ester], the IC50 in series [1] lay within 156 to 439 nM. On to `COc1ccc(OC)c2[nH]c(CCCN(C)CC[C@]3(OC(=O)C(C)C)C[C@H]4CC[C@@H]3C=C4c3ccccc3)nc12` (racemic) [Reference Example 1A, rac-Isobutyric acid (1R*,2R*,4R*)-2-(2-{[3-(4,7-dimethoxy-1H-benzoimidazol-2-yl)-propyl]-methyl-amino}-ethyl)-5-phenyl-bicyclo[2.2.2]oct-5-en-2-yl ester], for which, in series [3], the EC50 was found to be 5 nM. The IC50 in series [1] lay in the range of 156 to 439 nM. As for `COc1ccc(OC)c2[nH]c(CCCN(C)CCC3(OC(=O)C(C)C)CC4CCC3C=C4c3ccccc3)nc12.Cl.Cl` (stereo not drawn) [di-hydrochloric acid salt of COMPOUND], in series [2], the Hygroscopicity classification entry is “Slightly hygroscopic (mass” and the Hygroscopicity mass change entry is on record as “change 0.5%)”. For `Br.Br.COc1ccc(OC)c2[nH]c(CCCN(C)CCC3(OC(=O)C(C)C)CC4CCC3C=C4c3ccccc3)nc12` (stereo not drawn) [di-hydrobromic acid salt of COMPOUND] the same measures were “Non hygroscopic” and 0.1%.

For `COc1ccc(OC)c2[nH]c(CCCN(C)CCC3(OC(=O)C(C)C)CC4CCC3C=C4c3ccccc3)nc12.O=C(O)/C=C\C(=O)O.O=C(O)/C=C\C(=O)O` (stereo not drawn) [di-maleic acid salt of COMPOUND], in series [2], the Hygroscopicity classification entry is listed as “Non hygroscopic” and the Hygroscopicity mass change is on record as 0.1%.

As usually defined, the IC50 is the concentration at which inhibition is half-maximal. As usually defined, the EC50 is the concentration at which the effect is half-maximal.

The record behind these values is patent publication US8492555B2, “Salts of isobutyric acid (1 R*, 2R*, 4R*)-2-(2-{[3-(4,7-dimethoxy-1 H-benzoimidazol-2-yl)-methyl-amino}-ethyl)-5-phenyl-bicyclo[2.2.2]oct-5-en-2-yl ester” (Actelion Pharmaceuticals Ltd., priority 2008, dated 2013).
